Here are results for eleven molecules from patent publication US20250195598A1, “FLAVONOID ACTIVE FRACTION OF AN ABELMOSCHI COROLLA, PREPARATION METHOD AND APPLICATION THEREOF” (SUZHONG PHARMACEUTICAL GROUP CO., LTD., priority 2022, published 2025).

The conditions of data set [1]: compared with the control group; cited from earlier work.
Another data set concerns db/db mice. The data set is described as follows: db/db mice diabetic kidney disease model. The class given is in vivo. As to conditions: samples 62.4 mg/kg, Dapagliflozin tablet 45.5 mg/kg. How it is done:
Animal model: db/db mice, 16 weeks old, and C57 BL/6 mice, 16 weeks old. Administration mode: intragastric administration. Experimental modeling: the db/db mice were raised for 17 weeks, and then urine protein was detected. When there were urine protein and renal function abnormality, the modeling was successful for later experiment. Experimental groups: there were a normal group of the C57 BL/6 mice, a model group of the db/db mice, a positive drug group (Dapagliflozin tablet, 45.5 mg/kg), a sample group prepared by the method of Embodiment 3-1 (62.4 mg/kg), a sample group prepared by the method of Embodiment 9.1 (62.4 mg/kg), and a sample group prepared by the method of Embodiment 2-A3 (62.4 mg/kg). There were 6 groups in total, with 15 mice in each group. After 4 weeks of administration, urine protein, urine creatinine and a daily food intake were detected, and a mouse state was observed.

The subject of data set [2] is diabetic kidney disease model, C57BL/6 mice. The data set is described as follows: streptozotocin (STZ)+high-fat-fed diabetic kidney disease model. Conditions: samples 62.4 mg/kg, Dapagliflozin tablet 45.5 mg/kg. It is filed as in vivo. On the procedure:
Administration method: intragastric administration. Experimental modeling: after 3 days of adaptive feeding, the experimental mice were fed with high-fat and high-sugar feed (made by laboratory according to a formula of lard:sucrose:yolk:basic feed=18:20:3:59) for 8 consecutive weeks, and then intraperitoneally injected with an STZ sodium citrate solution according to a dosage of 100 mg/kg for 7 consecutive days. […] When the blood glucose was greater than 13.8 mmol/L, and there were urine protein and renal function abnormality, the modeling was successful. Experimental groups: there were a total of 6 groups, comprising a normal group, a model group, a positive drug group (Dapagliflozin tablet, 45.5 mg/kg), a sample group prepared by the method of Embodiment 2-1 (62.4 mg/kg), a sample group prepared by the method of Embodiment 6 (62.4 mg/kg) and a sample group prepared by the method of Embodiment 8 (62.4 mg/kg), with 15 mice in each group. After 4 weeks of administration, urine protein and urine creatinine were detected, and a daily food intake and a mouse state were calculated.

Another data set relates to MRL/lpr mice. Nature of the data set: lupus erythematosus nephritis. As to conditions: Dexamethasone 1 mg/kg, Embodiment 2-B 69.9 mg/kg, other samples 87.36 mg/kg. It is filed as in vivo. The source says:
26 male MRL/lpr mice (lupus erythematosus nephritis mice) were selected as an observation group 1, with 18 g to 22 g weight and 13 weeks old, which were purchased from Nanjing Junke Bioengineering Co., Ltd., and 24 male C57BL/6 mice were selected as a normal group, with 18 g to 22 g weight and 13 weeks old, which were purchased from Wuhan Hualianke Biotechnology Co., Ltd.
The mice were administrated for 4 weeks.
After administration, 24-hour urine was collected to detect urine protein. After the urine was collected, eyeballs of all the mice were taken for blood collection, and the collected blood was centrifuged to obtain serum for antinuclear antibody detection. Meanwhile, kidneys of the mice were taken out, quickly frozen in liquid nitrogen, and stored in a refrigerator at −80° C. for kidney immune detection.

Another data set deals with SD rats. The data set is described as follows: contrast-induced kidney injury. Conditions: intragastric, 4 weeks; Irbesartan 50 mg/kg/d, samples 69.9 or 87.36 mg/kg (groups of b143 differ from the table). It is filed as in vivo. How it is done: Experimental animals: SD rats, 200 g to 250 g weight, SPF grade, half male and half female.
(§1) Administration mode: intragastric administration.
Experimental modeling: healthy male SD rats were selected, intramuscularly injected with furosemide (10 ml/kg) first, and then injected with a prostaglandin synthesis inhibitor (indomethacin, 10 mg/kg, dissolved in dimethyl sulfoxide, and diluted with 1.25% of NAHCO3 solution), a nitric oxide synthase inhibitor (N-nitro-L-arginine-methyl ester hydrochloride, L-NAME, 10 mg/kg, dissolved in 0.9% of NaCl solution) and 76% of meglumine diatrizoate by tail vein every 15 minutes.
In animal models, the increase of serum creatinine exceeding the baseline by 50% was often used as the diagnostic criterion of acute kidney injury, that was, the success criterion of modeling.
Drug groups and administration dosages: there were a normal group, a model group, a positive control drug group (Irbesartan 50 mg/kg/d), a sample group of Embodiment 2-1 (69.9 mg/kg), a sample group of Embodiment 3.1 (87.36 mg/kg), a sample group of Embodiment 7 (87.36 mg/kg), a sample group of Embodiment 9.1 (87.36 mg/kg) and a sample group of Embodiment 9.2 (87.36 mg/kg, the solids prepared according to Embodiment 9.2), with 15 rats in each group. […]

Another data set concerns Kunming mice. The data set is described as follows: bleomycin-induced idiopathic pulmonary fibrosis. It is filed as in vivo. As to conditions: HE staining, four grades, 28 days; Rosiglitazone 5 mg/kg, samples 70 mg/kg, Huangkui Capsule 180 mg/kg based on the extract. On the procedure: Experimental animals: 60 Kunming mice, half male and half female, 18 g to 22 g weight, clean grade.
Animal groups: the mice were randomly divided into 6 groups, which comprise a normal group, a model group, a drug control group (5 mg/kg of Rosiglitazone), a sample group prepared by the method of Embodiment 2-A3 (70 mg/kg), a sample group prepared by the method of Embodiment 9.2 (70 mg/kg) and a Huangkui Capsule sample group (180 mg/kg based on the extract), with 10 mice in each group.
Experimental modeling: after 3 days of adaptive feeding, the experimental mice were anesthetized by intraperitoneal injection with 4% chloral hydrate (0.01 ml/g). Taking a supine fixed position, routine disinfection was carried out, a median cervical incision was made, and a trachea was exposed by passive separation. The model group, the control group and the treatment group were slowly injected with bleomycin (5 mg/kg) into a space between tracheal cartilaginous rings, and the normal control group was injected with the same volume of normal saline. The mice were immediately rotated upright for 3 minutes to 5 minutes after the injection, so that the liquid medicine was evenly distributed in both lungs, then skin of the mice was sutured and disinfected at a suture, and the mice after waking were sent to a clean grade observation room for feeding. […]

The conditions of data set [3]: compounds having five hydroxyl groups; cited from earlier work.
Another data set deals with Brown-Norway rats. The data set is described as follows: ocular blood flow and choroidal neovascularization after krypton laser photocoagulation. Conditions: intragastric, after 4 weeks; Verteporfin 1.35 mg/kg, Embodiment 2-1 69.9 mg/kg, other samples 87.36 mg/kg. It is filed as in vivo. How it is done:
Experimental animals: rats, 150 g to 180 g weight, SPF grade, half male and half female.
as §1
Experimental modeling: healthy male Brown-Norway rats were selected and anesthetized by intramuscular injection of ketamine (50 mg/kg), pupils of the rats were dilated with a mixed mydriatic of 0.5% tropicamide and neofolin, and 8 points were photocoagulated between great retinal vessels around an optic disc at a distance 2 to 4 disc diameters away from the optic disc under a 120D special front lens by a krypton yellow laser (Lumenis Company in the United States) (wavelength 568 nm, and parameters: spot diameter […], exposure time 0.1 second, and power 150 mW to 200 mW). […]
Drug groups and administration dosages: there were a normal group, a model group, a positive control drug group (Verteporfin 1.35 mg/kg), a sample group of Embodiment 2-1 (69.9 mg/kg), a sample group of Embodiment 3.1 (87.36 mg/kg), a sample group of Embodiment 7 (87.36 mg/kg), a sample group of Embodiment 9.1 (87.36 mg/kg) and a sample group of Embodiment 9.2 (87.36 mg/kg, solids prepared according to Embodiment 9.2), with 15 rats in each group. After 4 weeks of administration, an inhibition rate of choroidal blood flow and an area of choroidal neovascularization of eyes were detected.

Turning to `Cc1ccc([C@@H]2O[C@H](CO)[C@@H](O)[C@H](O)[C@H]2O)cc1Cc1ccc(-c2ccc(F)cc2)s1` [Canagliflozin], the “serum uric acid level” value in data set [1] is “significantly reduces”.
As to `CCOc1ccc(Cc2cc([C@@H]3O[C@H](CO)[C@@H](O)[C@H](O)[C@H]3O)ccc2Cl)cc1` [Dapagliflozin tablet, Dapagliflozin], in the data set with db/db mice (intragastric, after 4 weeks), the Urine albumin-to-creatinine ratio/ is listed as 1.17 ± 1.26 and the Urine protein/mg was 15.09 ± 10.27 mg. Also, in the data set with db/db mice (of 15 mice per group, 4 weeks), the “Abdominal distension/number of mice” value is given as 0 number of mice and the Diarrhea/number of mice was 0 number of mice. In addition, the Urine albumin-to-creatinine ratio in data set [2] (intragastric, after 4 weeks of administration) turned out to be 1.04 ± 1.09. In data set [2] (intragastric, after 4 weeks of administration, 15 mice per group), the Urine protein/mg is reported as 17.51 ± 12.34 mg. Further, in data set [2] (of 15 mice per group, 4 weeks), the “Abdominal distension/number of mice” value was 0 number of mice and the Diarrhea/number of mice is listed as 0 number of mice.
In turn, `C[C@@H]1C[C@H]2[C@@H]3CCC4=CC(=O)C=C[C@]4(C)[C@@]3(F)[C@@H](O)C[C@]2(C)[C@@]1(O)C(=O)CO` [Dexamethasone] showed a Urine protein in the data set with MRL/lpr mice (24-hour urine after 4 weeks) of 11.67 ± 3.45. Also, in the data set on MRL/lpr mice (kidney tissue after 4 weeks), the “C3 level of kidney” value is 1.21 ± 0.67 and the “IgG level of kidney” value is 1.32 ± 0.67. Besides, in the data set on MRL/lpr mice (serum after 4 weeks), the “Logarithm of antinuclear antibody titers” value was 0.81 ± 0.11.
On to `OC[C@H]1O[C@@H](c2ccc(Cl)c(Cc3ccc(O[C@H]4CCOC4)cc3)c2)[C@H](O)[C@@H](O)[C@@H]1O` [Empagliflozin], for which, in data set [1], the “serum uric acid level” value is recorded as “significantly reduces”.
Consider `OC[C@H]1O[C@@H](c2ccc(F)c(Cc3cc4ccccc4s3)c2)[C@H](O)[C@@H](O)[C@@H]1O` [Ipragliflozin], for which, in data set [1], the “serum uric acid level” value is listed as “significantly reduces”.
In the data set with SD rats, `CCCCC1=NC2(CCCC2)C(=O)N1Cc1ccc(-c2ccccc2-c2nnn[nH]2)cc1` [Irbesartan] returned a Serum creatinine of 16.67 ± 1.23 and a Serum urea nitrogen of 3.01 ± 0.98.
In the case of `CCOc1ccc(Cc2cc([C@@H]3S[C@H](CO)[C@@H](O)[C@H](O)[C@H]3O)c(OC)cc2C)cc1` [Luseogliflozin], in data set [1], the “serum uric acid level” value is reported as “significantly reduces”.
With `CN(CCOc1ccc(CC2SC(=O)NC2=O)cc1)c1ccccn1` (stereo not drawn) [Rosiglitazone], in the data set on Kunming mice, the “Degree of pulmonary alveolitis” value is 1.03 ± 0.49 and the “Degree of pulmonary fibrosis” value amounted to 1.15 ± 0.81.
For `CCc1ccc(Cc2ccc3c(c2)[C@]2(OC3)O[C@H](CO)[C@@H](O)[C@H](O)[C@H]2O)cc1` [Tofogliflozin], the “serum uric acid level” value in data set [1] was “significantly reduces”.
In the case of `O=c1c(O)c(-c2ccc(O)c(O)c2)oc2cc(O)cc(O)c12` [quercetin], in data set [3], the “effect on ocular blood flow” value is listed as “negative effect”.
For Verteporfin, in the data set with Brown-Norway rats, the “Area of choroidal angiogenesis/μm^2” value was 19.80 ± 1.23^# μm^2 and the “Ocular choroidal blood flow inhibition ratio” value is given as 87.98 ± 11.23.
